Laboratory results: patent US20230118497A1, “PYRAZOLE-CONTAINING POLYCYCLIC DERIVATIVE INHIBITOR, PREPARATION METHOD THEREFOR AND APPLICATION THEREOF” (Shanghai Hansoh Biomedical Co., Ltd., priority 2019, published 2023)
pIC50: −log10 of the molar value. Read-outs that look alike come from different tables or passages of the source.

Experiments:
Assay type in all cases: in vitro ADME
[1] = Plasma protein binding rate (human); conditions: 37° C. 6 h
Protocol: Test Example 6. Assay of Plasma Protein Binding Rate
The objective of the experiment is to determine the plasma protein binding of the compounds of the Examples in plasma.
The compound of the Example was formulated into 1 mM solution A with DMSO;
The solution A was added to the plasma solution to obtain 5 μM solution B;
1) 200 μL of solution B was added to the inside of the membrane;
2) […] of PBS was added to the outside of the membrane;
3) Incubation in a water bath at 37° C. for 6 h;
4) The sample was diluted and analyzed by mass spectrometry.

[2] = biological target: T1, CYP450 enzyme isoform 2C19 (Homo sapiens, UniProt P33261); assay: CYP enzyme single-point inhibition assay, 2C19; conditions: human liver microsome, single-point method
T1 construct: single-point method using human liver microsome incubation system; from tissue; host or cells: human liver microsomes
Protocol: (§1) Test Example 7. CYP Enzyme Single-Point Inhibition Assay
(§2) The inhibition of the compounds on CYP450 enzyme isoformwas rapidly predicted by single-point method using human liver microsome incubation system.
(§3) 2.5 mM NADPH: 4.165 mg of NADPH (reduced nicotinamide adenine dinucleotide phosphate) was weighed, followed by addition of 100 mM phosphate buffer to 2 mL. 0.25 mg/mL microsome solution: 4 mL of 100 mM phosphate buffer was added to 50 μL of 20 mg/mL microsome solution and mixed well.
(§4) The test compound of the Example was weighed, diluted to 10 mM with DMSO and then to 100 μM with 100 mM phosphate buffer.
(§5) 1. 40 μL of liver microsome, 10 μL of substrate and 10 μL of the test compound were added to a 96-well plate and pre-incubated for 3 min.
(§6) 2. 40 μL of NADPH was added.
(§7) 3. 300 μL of acetonitrile stop solution containing internal standard was added at 20 min.
(§8) 4. The sample was centrifuged and injected.

[3] = biological target: T2, CYP450 enzyme isoform 1A2 (Homo sapiens, UniProt P05177); assay: CYP enzyme single-point inhibition assay, 1A2; conditions: human liver microsome, single-point method
T2 construct: single-point method using human liver microsome incubation system; from tissue; host or cells: human liver microsomes
T2 sequence (P05177 1-516): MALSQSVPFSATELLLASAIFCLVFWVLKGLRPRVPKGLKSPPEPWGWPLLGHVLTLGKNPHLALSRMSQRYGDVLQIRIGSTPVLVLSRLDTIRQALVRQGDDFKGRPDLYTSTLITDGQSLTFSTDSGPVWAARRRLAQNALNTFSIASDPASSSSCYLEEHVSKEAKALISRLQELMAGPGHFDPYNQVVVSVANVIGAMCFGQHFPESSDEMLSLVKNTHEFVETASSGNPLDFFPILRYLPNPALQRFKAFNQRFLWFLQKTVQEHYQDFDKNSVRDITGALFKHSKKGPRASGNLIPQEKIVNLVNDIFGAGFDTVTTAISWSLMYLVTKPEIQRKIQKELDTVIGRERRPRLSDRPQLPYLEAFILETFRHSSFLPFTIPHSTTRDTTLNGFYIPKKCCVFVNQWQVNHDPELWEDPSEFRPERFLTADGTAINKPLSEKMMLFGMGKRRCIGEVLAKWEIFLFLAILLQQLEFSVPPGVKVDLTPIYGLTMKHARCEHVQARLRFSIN
Protocol: as §1, §2, §3, §4, §5, §6, §7, §8

[4] = Metabolic stability in liver microsome (dog); conditions: dog liver microsome 0.5 mg/mL, compound 1 μM; for half-life at 1 μM: liver microsomes, NADPH/UDPGA
Protocol: (§9) Test Example 5. Assay of Metabolic Stability in Liver Microsome
(§10) The objective of the experiment is to determine the stability of the compounds of the Examples in liver microsome of mouse, rat, dog and human.
(§11) Formulation of the working solution of the compound: The stock solution of the compound was added to phosphate buffer, and the final concentration was 20 μM.
(§12) Liver microsome was diluted with 100 mM phosphate buffer to obtain a final concentration of 0.625 mg/mL.
(§13) NADPH (reduced nicotinamide adenine dinucleotide phosphate) and UDPGA (uridine diphosphate glucuronic acid) were weighed respectively, followed by addition of 100 mM phosphate buffer. The final concentrations were 20 mM.
(§14) 1 mg of Alamethicin was weighed, to which 200 μL of DMSO was added to obtain a 5 mg/mL solution. The solution was diluted with phosphate buffer to obtain a final concentration of 50 μg/mL.
(§15) 2.5 Formulation of the reaction stop solution Stop solution: Cold acetonitrile containing 100 ng/mL labetalol hydrochloride and 400 ng/mL tolbutamide as internal standards.
(§16) 400 μL of the prepared liver microsome, 25 μL of the working solution of the compound and 25 μL of Alamethicin were added to a 96-well plate successively, which was then pre-incubated at 37° C. for 10 min. 50 μL of the prepared NADPH/UDPGA was added to initiate the reaction, and the plate was incubated at 37° C. The total volume of the reaction system was 500 μL. The final contents of the components were as follows: […]

[5] = biological target: T3, CYP450 enzyme isoform 2C9 (Homo sapiens, UniProt P11712); assay: CYP enzyme single-point inhibition assay, 2C9; conditions: human liver microsome, single-point method
T3 construct: single-point method using human liver microsome incubation system; from tissue; host or cells: human liver microsomes
Protocol: as §1, §2, §3, §4, §5, §6, §7, §8

[6] = biological target: T4, CYP450 enzyme isoform 2D6 (Homo sapiens, UniProt P10635); assay: CYP enzyme single-point inhibition assay, 2D6; conditions: human liver microsome, single-point method
T4 construct: single-point method using human liver microsome incubation system; from tissue; host or cells: human liver microsomes
Protocol: as §1, §2, §3, §4, §5, §6, §7, §8

[7] = Metabolic stability in liver microsome (rat); conditions: rat liver microsome 0.5 mg/mL, compound 1 μM; for half-life at 1 μM: liver microsomes
Protocol: as §9, §10, §11, §12, §13, §14, §15, §16

[8] = biological target: T5, CYP450 enzyme isoform 3A4 (Homo sapiens, UniProt P08684); assay: CYP enzyme single-point inhibition assay, 3A4; conditions: human liver microsome, single-point method
T5 construct: single-point method using human liver microsome incubation system; from tissue; host or cells: human liver microsomes
Protocol: as §1, §2, §3, §4, §5, §6, §7, §8

T4 sequence (P10635 whole entry, canonical isoform): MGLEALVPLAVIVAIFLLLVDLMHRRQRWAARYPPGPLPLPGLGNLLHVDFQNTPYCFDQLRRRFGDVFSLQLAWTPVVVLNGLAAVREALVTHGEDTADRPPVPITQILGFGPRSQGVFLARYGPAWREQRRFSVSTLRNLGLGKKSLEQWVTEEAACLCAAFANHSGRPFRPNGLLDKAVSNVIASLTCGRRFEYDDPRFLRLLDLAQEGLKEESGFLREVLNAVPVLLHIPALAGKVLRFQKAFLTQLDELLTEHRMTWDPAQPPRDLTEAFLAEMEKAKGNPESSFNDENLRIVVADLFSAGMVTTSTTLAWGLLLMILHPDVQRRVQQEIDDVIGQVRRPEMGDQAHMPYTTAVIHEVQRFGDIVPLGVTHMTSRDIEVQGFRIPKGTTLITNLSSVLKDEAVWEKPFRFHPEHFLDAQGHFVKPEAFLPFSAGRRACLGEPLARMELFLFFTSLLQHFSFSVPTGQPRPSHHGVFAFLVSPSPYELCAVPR
T1 sequence (P33261 whole entry, canonical isoform): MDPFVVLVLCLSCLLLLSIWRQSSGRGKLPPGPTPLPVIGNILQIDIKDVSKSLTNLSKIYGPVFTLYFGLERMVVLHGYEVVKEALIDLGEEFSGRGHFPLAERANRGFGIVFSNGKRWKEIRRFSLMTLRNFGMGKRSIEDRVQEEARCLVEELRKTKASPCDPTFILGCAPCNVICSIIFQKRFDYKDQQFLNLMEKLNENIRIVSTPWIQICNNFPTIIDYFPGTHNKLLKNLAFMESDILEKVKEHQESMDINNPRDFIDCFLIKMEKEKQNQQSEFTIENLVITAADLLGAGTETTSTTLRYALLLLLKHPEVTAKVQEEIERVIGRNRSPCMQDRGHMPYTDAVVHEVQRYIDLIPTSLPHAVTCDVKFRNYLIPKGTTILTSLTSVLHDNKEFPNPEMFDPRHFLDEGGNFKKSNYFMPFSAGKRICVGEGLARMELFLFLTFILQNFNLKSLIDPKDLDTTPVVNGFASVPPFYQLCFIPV
T3 sequence (P11712 whole entry, canonical isoform): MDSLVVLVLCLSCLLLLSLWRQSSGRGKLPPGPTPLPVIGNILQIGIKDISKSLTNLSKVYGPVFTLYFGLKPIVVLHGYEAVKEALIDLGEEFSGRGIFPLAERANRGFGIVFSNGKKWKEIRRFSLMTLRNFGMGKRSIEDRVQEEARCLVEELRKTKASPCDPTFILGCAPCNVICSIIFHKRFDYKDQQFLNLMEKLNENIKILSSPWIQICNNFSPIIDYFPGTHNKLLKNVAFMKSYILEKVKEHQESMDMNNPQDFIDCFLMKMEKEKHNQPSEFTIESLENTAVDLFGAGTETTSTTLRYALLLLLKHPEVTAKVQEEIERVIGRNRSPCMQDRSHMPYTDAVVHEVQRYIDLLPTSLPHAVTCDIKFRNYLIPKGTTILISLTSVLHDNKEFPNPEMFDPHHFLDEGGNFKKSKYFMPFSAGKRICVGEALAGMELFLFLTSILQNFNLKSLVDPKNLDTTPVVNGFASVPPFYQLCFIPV
T5 sequence (P08684 whole entry, canonical isoform): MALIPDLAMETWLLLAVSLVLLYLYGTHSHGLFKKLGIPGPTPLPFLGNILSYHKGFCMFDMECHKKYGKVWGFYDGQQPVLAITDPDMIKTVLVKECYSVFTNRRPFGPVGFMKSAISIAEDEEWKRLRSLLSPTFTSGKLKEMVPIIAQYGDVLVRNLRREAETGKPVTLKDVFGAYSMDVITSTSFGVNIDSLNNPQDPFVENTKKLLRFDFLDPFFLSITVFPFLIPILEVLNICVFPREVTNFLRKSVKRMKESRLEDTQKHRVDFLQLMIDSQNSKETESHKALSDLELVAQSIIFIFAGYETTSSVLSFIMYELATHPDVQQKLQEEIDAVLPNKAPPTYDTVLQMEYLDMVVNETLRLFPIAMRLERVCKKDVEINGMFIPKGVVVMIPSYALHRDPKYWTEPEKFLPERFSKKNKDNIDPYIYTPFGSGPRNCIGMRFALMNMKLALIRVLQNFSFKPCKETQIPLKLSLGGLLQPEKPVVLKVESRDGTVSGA

Row | Compound | fraction unbound at 6 h, 5 μM [1] | pIC50 [2] | pIC50 [3] | Remaining (%, 60 min) [4] [%] | half-life at 1 μM [4] [h] | pIC50 [5] | pIC50 [6] | Remaining (%, 60 min) [7] [%] | t1/2 ([7]; NADPH/UDPGA) | pIC50 ([8]; 3A4-M, read-out: 3A4-M IC50) | pIC50 ([8]; 3A4-T, read-out: 3A4-T IC50) | half-life at 1 μM ([7]; NADPH/UDPGA) [h]
1 | N#Cc1cc2n(CC(=O)Nc3ccc(F)cn3)c(=O)c3ccc(C(F)(F)F)nc3n2n1 [Example 68, 2-(2-Cyano-5-oxo-8-(trifluoromethyl)pyrazolo[1,5-a]pyrido[3,2-e]pyrimidin-4(5H)-yl)-N-(5-fluoropyridin-2-yl)acetamide] | 0.066 | < 4.00 | < 4.00 | 99.0 | 22.5 | < 4.00 | < 4.00 | 106.4 | ∞ | < 4.00 | < 4.00 | –
2 | N#Cc1cnn2c3nc(C(F)(F)F)ccc3c(=O)n(CC(=O)Nc3ccc(F)cn3)c12 [Example 80, 2-(3-Cyano-5-oxo-8-(trifluoromethyl)pyrazolo[1,5-a]pyrido[3,2-e]pyrimidin-4(5H)-yl)-N-(5-fluoropyridin-2-yl)acetamide] | 0.135 | – | – | – | – | – | – | – | – | – | – | –
3 | O=C(Cn1c(=O)c2ccc(C(F)(F)F)nc2n2nc(Br)cc12)Nc1ccc(F)cn1 [Example 61-A, 2-(2-bromo-5-oxo-8-(trifluoromethyl)pyrazolo[1,5-a]pyrido[3,2-e]pyrimidin-4(5H)-yl)-N-(5-fluoropyridin-2-yl)acetamide] | 0.016 | < 4.00 | 4.14 | 96.0 | 15.6 | < 4.00 | < 4.00 | 102.3 | – | < 4.00 | < 4.00 | 15.7
4 | CCc1cc2n(CC(=O)Nc3ccc(F)cn3)c(=O)c3ccc(C(F)(F)F)nc3n2n1 [Example 34, 2-(2-Ethyl-5-oxo-8-(trifluoromethyl)pyrazolo[1,5-a]pyrido[3,2-e]pyrimidin-4(5H)-yl)-N-(5-fluoropyridin-2-yl)acetamide] | 0.015 | < 4.00 | 4.60 | – | – | < 4.00 | < 4.00 | 104.4 | – | < 4.00 | < 4.00 | 28.9
5 | O=C(Cn1c(=O)c2ccc(C(F)(F)F)nc2n2nccc12)Nc1ccc(F)cn1 [Example 78, N-(5-Fluoropyridin-2-yl)-2-(5-oxo-8-(trifluoromethyl)pyrazolo[1,5-a]pyrido[3,2-e]pyrimidin-4(5H)-yl)acetamide] | 0.103 | < 4.00 | < 4.00 | 93.4 | 11.2 | < 4.00 | < 4.00 | 98.9 | – | < 4.00 | < 4.00 | 32.7
